Experimental data: US20110257087A1, “Protein Hydrolysate Compositions Having Enhanced CCK Releasing Activity” (SOLAE, LLC, priority 2008, published 2011)

Tested on: STC-1 cells
Experiment: CCK release by STC-1 cells (competitive enzyme assay of the cell-conditioned medium)
Assay type: cell-based, mouse
Conditions: positive control, 100 nM PMA in 2 mg/ml BSA, 4 hour
Method: The protein hydrolysates were added to the media of STC-1 cells at a protein concentration of approximately 2 mg/mL, and the enzyme controls were added at equivalent dilutions of the control reaction mixture (which included the enzyme(s) in the absence of protein substrate). Plotted is the % CCK released into the media of STC-1 cells stimulated by the different protein hydrolysates generated by the pepsin or pepsin and pancreatin enzymes, compared to the control 100 nM PMA (which was set as 100%). Cell culture media alone and 2 mg/mL bovine serum albumin (BSA) were used as negative background controls. The PMA control consisted of 100 nM PMA in cell culture media containing 2 mg/ml BSA. % CCK released into the cell culture media was calculated as follows: […]
It is known that protein, in general, stimulates the release of CCK by enteroendocrine cells in the intestinal track of animals, including humans (Liddle, R. A., et al., (1986) Proteins But Not Amino Acids, Carbohydrates, or Fats Stimulate Cholecystokinin Secretion in the Rat. Am. J. Physiol. 251 (Gastrointest. Liver Physiol. 14): G243-G248). […] Degree of hydrolysis was determined by the reaction of primary amine groups with o-phthalaldehyde (OPA) vs. total amount of primary amine present in sample after acid hydrolysis (110° C. for 24 hours) (known as, the “OPA method”). […]

In the case of `CCCCCCCCCCCCCC(=O)O[C@@H]1[C@@H](C)[C@@]2(O)[C@@H](C=C(CO)C[C@]3(O)C(=O)C(C)=C[C@@H]23)[C@@H]2C(C)(C)[C@]12OC(C)=O` [PMA, phorbol 12-myristate-13-acetate], the “CCK Release (ng/ml) mean ± sem” value is reported as 0.171 ± 0.003 ng/mL.
